Measured values reported in US5308840A, “Substituted or unsubstituted benzhydryl heteroalkyl-substituted aminophenol compounds and pharmaceutical compositions thereof” (Green Cross Corporation, priority 1991, dated 1994).
Values after ≈ are worked out from the molar mass of the structure shown.

Assays:
[1] = tested on: TPA-induced mouse ear edema; experiment: Effect on TPA-induced mouse ear edema test; assay type: in vivo, male ICR mice; details: inhibition of ear edema (ear weight difference) vs control; TPA 1 μg/20 μl, topical; drug dissolved in TPA solution (100 μg/20 ml); 5 hours
Description: Effect on TPA-induced mouse ear edema test
Male ICR mice weighing about 20 g were etherized, and fixed at the dorsal position. TPA (12-O-tetradecanoylphorbol-13-acetate: phorbol 12-myristate-13-acetate, 1 μg/20 μl) dissolved in a mixed solution of acetone: pyridine: water (97:2:1) was coated on the left year while drying with a dryer. Five hours later, the mice were slaughtered by vertebral dislocation. The both ears were stamped out with a circle chisel (punch), and weighed. The weight difference between the both ears was taken as an index of the degree of edema, and the percent inhibition was calculated from the comparison with the control. Each drug was dissolved in TPA solution (100 μg/20 ml).

[2] = tested on: lipoperoxide production in rat cerebral tissues; experiment: Inhibition of lipoperoxide production in rat cerebral tissues (TBA reaction in cerebral tissue homogenate); assay type: biochemical; details: 37° C., 120 minutes, test concentrations 10, 1, 0.1, 0.01, 0.001 μg/ml, absorbance 535 nm, least square method
Description: Inhibition of lipoperoxide production in rat cerebral tissues
(1) Preparation of cerebral tissue homogenate
A rat was slaughtered with carbon dioxide, and immediately after blood sampling from the heart, brain was removed and weighed. A 5% (w/v) tissue homogenate was prepared by a homogenizer with PBS (pH 7.3). Homogenation was conducted two times for 15 seconds (scale 10) while cooling.
(2) Inhibition of lipoperoxide production in rat cerebral 4issues.
Each of the test drugs (50 μl, concentration 10, 1, 0.1, 0.01, 0.001 μg/ml) was placed in a polypropylene tube, to which was added cerebral tissue homogenate (1 ml), followed by incubation at 37° C. in a thermobath for 120 minutes. Thereafter, 1% phosphoric acid (0.3 ml), 10% phosphotungstic acid (0.2 ml) and 0.67% TBA (tiobarbituric acid) agent (1 ml) were added thereto while stirring as necessary, and immediately thereafter, TBA reaction was conducted in a boiling water bath for 20 minutes. The mixture was cooled in ice water for 5 minutes, and added with n-butanol (4 ml). After 10 minutes' shaking extraction, it was centrifuged at 3000 rpm and at room temperature (low temperature causes change of absorbance) for 10 minutes. The absorbance of the butanol layer (upper layer) was measured at a wavelength of 535 nm. The difference between the absorbance of the control incubated at 37° C. (added with dimethylsulfoxide only) and that of the control cooled at 2° C. (added with dimethylsulfoxide only) was taken as the amount of 100% lipoperoxide production, and the percent suppression of the drug was calculated from the following formula. [formula] wherein A is the difference of absorbance of 37° C. control and 2° C. control, and B is the difference of absorbance of a drug sample and 2° C. control. The IC50 (μg/ml) was calculated by least square method using the percent inhibition at each concentration.

IC50 [2] | Compound | Inhibition (%) [1]
0.16 µg/mL (≈ 0.367 µM) | CN(C)c1cc(CN2CCN(C(c3ccccc3)c3ccc(Cl)cc3)CC2)ccc1O (stereo not drawn) [Compound 7, 4-[4-(4-chlorobenzhydryl)piperazino]methyl-2-dimethylaminophenol] | 54.6%
0.029 µg/mL (≈ 0.0673 µM) | Cc1ccc(O)c(NCCCN2CCC(C(O)(c3ccccc3)c3ccccc3)CC2)c1 [Compound 18, 2-[3-(4-hydroxydiphenylmethyl-1-piperidinyl)propyl]amino-4methylphenol] | 89.0%
 | CN1CCN(C(c2ccc(Cl)cc2)c2ccc(O)c(N(C)C)c2)CC1 (stereo not drawn) [Compound 3, 4-[1-(4-chlorophenyl)-1-(4-methylpiperazino)]methyl-2-dimethylaminophenol] | 71.1%
0.39 µg/mL (≈ 1.12 µM) | CN(C)CCOC(c1ccc(Cl)cc1)c1ccc(O)c(N(C)C)c1 (stereo not drawn) [Compound 1, 2-[1-(4-chlorophenyl)-1-(3-dimethylamino-4-hydroxyphenyl)methoxy]-N,N-dimethylethanamine] | 
0.12 µg/mL (≈ 0.267 µM) | Cc1ccc(O)c(NCCCN2CCN(C(c3ccccc3)c3ccc(Cl)cc3)CC2)c1 (stereo not drawn) [Compound 15, 2-[3-[4-(4-chlorobenzhydryl)piperazino]propyl]amino-4-methylphenol] | 86.7%
0.44 µg/mL (≈ 0.894 µM) | Cc1ccc(O)c(N(CCCN2CCN(C(c3ccccc3)c3ccc(Cl)cc3)CC2)C(C)C)c1 (stereo not drawn) [Compound 21, 2-[N-[3-[4-(4-chlorobenzhydryl)piperazino]propyl]-N-isopropyl]amino-4-methylphenol] | 44.4%
0.10 µg/mL (≈ 0.221 µM) | Cc1ccc(O)c(NCCCN2CCN(C(c3ccc(F)cc3)c3ccc(F)cc3)CC2)c1 [Compound 32, 2-[3-[4-(4,4'-difluorobenzhydryl)piperazino]propyl]amino-4-methylphenol] | 64.1%
0.036 µg/mL (≈ 0.0836 µM) | Cc1ccc(O)c(NCCCN2CCC(OC(c3ccccc3)c3ccccc3)CC2)c1 [Compound 19, 2-[3-(4-benzhydryloxy-1-piperidinyl)propyl]amino-4-methylphenol] | 85.5%
0.066 µg/mL (≈ 0.13 µM) | Cc1cc(NCCCN2CCN(C(c3ccccc3)c3ccc(Cl)cc3)CC2)c(O)c(C(C)(C)C)c1 (stereo not drawn) [Compound 20, 6-tert-butyl-2-[3-[4-(4-chlorobenzhydryl)piperazino]propyl]amino-4-methylphenol] | 63.8%
0.013 µg/mL (≈ 0.028 µM) | Cc1ccc(O)c(NCCCN2CCCN(C(c3ccccc3)c3ccc(Cl)cc3)CC2)c1 (stereo not drawn) [Compound 17, 2-[3-[4-(4-chlorobenzhydryl)homopiperazino)propyl]amino-4-methylphenol] | 87.0%
 | CN(C)CCN(Cc1ccc(O)c(N(C)C)c1)c1ccccc1 [Compound 4, 2-dimethylamino-4-[N-(2-dimethylaminoethyl)-N-phenyl]aminomethylphenol] | 75.0%
0.31 µg/mL (≈ 0.931 µM) | CN(C)CCC(c1ccc(Cl)cc1)c1ccc(O)c(N(C)C)c1 (stereo not drawn) [Compound 6, 4-[1-(4-chlorophenyl)-3-dimethylaminopropyl]-2-dimethylaminophenol] | 62.7%
0.086 µg/mL (≈ 0.237 µM) | Cc1ccc(O)c(NC(C)CN2c3ccccc3Sc3ccccc32)c1 (stereo not drawn) [Compound 12, 2-[1-methyl-2-(phenothiazine-10-yl)ethyl]amino-4-methylphenol] | 74.7%
0.79 µg/mL (≈ 1.67 µM) | Cc1ccc(O)c(N(CCCN2CCC(C(O)(c3ccccc3)c3ccccc3)CC2)C(C)C)c1 [Compound 23, 2-[N-[3-(4-hydroxydiphenylmethyl-1-piperidinyl)propyl]-N-isopropyl]amino-4-methylphenol] | 39.2%
0.30 µg/mL (≈ 0.698 µM) | Cc1ccc(O)c(N(C)CCCN2CCN(C(c3ccccc3)c3ccccc3)CC2)c1 [Compound 16, 2-[N-[3-(4-benzhydrylpiperazino)propyl]-N-methyl]amino-4-methylphenol] | 50.9%
 | Cc1ccc(O)c(NCCCN2CCC(C(O)(c3ccccc3)c3ccc(Cl)cc3)CC2)c1 (stereo not drawn) [Compound 26, 2-[3-[4-(4-chlorophenyl)hydroxyphenylmethyl-1-piperidinyl]propyl]amino-4-methylphenol] | 97.5%
0.038 µg/mL (≈ 0.0914 µM) | Cc1ccc(O)c(NCCCN2CCN(C(c3ccccc3)c3ccccc3)CC2)c1 [Compound 14, 2-[3-(4-benzhydrylpiperazino)propyl]amino-4-methylphenol] | 77.8%
0.23 µg/mL (≈ 0.662 µM) | Cc1ccc(O)c(N(C)CCOC(c2ccccc2)c2ccccc2)c1 [Compound 10] | 
0.20 µg/mL (≈ 0.604 µM) | CN(C)CC=C(c1ccc(Cl)cc1)c1ccc(O)c(N(C)C)c1 [Compound 5, 1-(4-chlorophenyl)-3-dimethylamino-1-(3-dimethylamine-4-hydroxyphenyl)-1-propene] | 75.0%
